“Also recorded” adds a separate entry of the source. Where no end group is shown, it is not given here. The star is where a group is joined. Biotin = O=C1N[C@H]2[C@H](CS[C@H]2CCCCC(=O)*)N1; FAM = fluorescein
Tests used:
MO7e cells [1] = assay: 6MP cytotoxicity in MO7e cells and CRISPR knock-outs; type: cell-based, Human
[2] = test system: ABCC4 plasma membrane localization in HEK293 cells expressing MPP1 and GFP-ABCC4; assay: ABCC4 plasma membrane localization (confocal microscopy); type: cell-based, Human
Method: Peptides containing or lacking the ABCC4-PDZ motif were fused with the cell penetrating HIV-TAT peptide. These peptides were tested for their effect on ABCC4 plasma membrane localization. HEK293 cells were transfected with MPP1 and GFP-ABCC4 and the ER protein, calreticulin. The plasma membrane was counter-stained with wheat-germ-agglutinin (WGA) labeled with Alexa647 after treatment with either ABCC4-PDZ or ABCC4ΔC peptide.
HEK293 cells were seeded on chambered coverglass slides (LAB-TEK) 48 h before transfection with plasmid DNA (250 ng) encoding pAc-GFP-ABCC4 or ABCC4ΔC and pCal plasmid encoding the ER resident protein calreticulin conjugated to RFP (Origene). Transfection was performed using Lipofectamine 2000 as per the manufacturer’s instructions. Immediately prior to visualizing cells, cells were counterstained with the plasma membrane marker wheat-germ agglutinin (WGA) conjugated to Alexa-647 (Invitrogen). All confocal microscopy images were acquired on a 3i Marianas system configured with an Yokagowa CSU-X spinning disk confocal microscope utilizing a ×63 Zeiss objective, using the 488 (GFP), 561 (RFP), and 660 (far red) laser lines.

[3] = test system: murine hematopoietic progenitor cells (HPC); assay: Hematopoietic progenitor cell serial replating in methylcellulose; settings: HPC transduced with MPP1; cell penetrating peptide, fresh at each replating; n = 3
[4] = molecular target: T1, MPP1 and ABCC4 protein interaction (Homo sapiens, UniProt Q00013); assay: Competition of ABCC4 C-terminal peptides with MPP1–ABCC4 complex (GST-ABCC4-C100 pull-down, immunoblot); type: biochemical
T1 construct: For full-length expression of MPP1, the pTriX vector containing an N-terminal His tag was used to create the His-S-MPP1 fusion protein; made in house; host or cells: E. coli
T1 sequence (Q00013 1-466): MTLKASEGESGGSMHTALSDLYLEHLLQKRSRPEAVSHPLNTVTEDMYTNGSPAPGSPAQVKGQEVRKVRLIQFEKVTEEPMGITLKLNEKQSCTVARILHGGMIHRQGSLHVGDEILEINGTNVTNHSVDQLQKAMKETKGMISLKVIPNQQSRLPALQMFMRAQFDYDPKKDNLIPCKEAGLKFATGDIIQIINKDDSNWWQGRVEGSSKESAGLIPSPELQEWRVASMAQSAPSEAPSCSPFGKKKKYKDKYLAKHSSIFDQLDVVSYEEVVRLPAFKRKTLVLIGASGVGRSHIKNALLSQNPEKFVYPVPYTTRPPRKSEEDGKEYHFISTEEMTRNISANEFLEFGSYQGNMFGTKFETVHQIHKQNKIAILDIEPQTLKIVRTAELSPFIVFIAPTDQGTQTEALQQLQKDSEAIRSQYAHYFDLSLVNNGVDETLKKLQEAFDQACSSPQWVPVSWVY
Method: C-terminal peptides of ABCC4 containing the carboxyl-terminal 15 amino acids ([…]-COOH, ABCC4-PDZ) or carboxyl-terminal 11 amino acids lacking the PDZ-binding motif ([…]-COOH, ABCC4ΔC) conjugated to the cell penetrating peptide TAT ([…]) were chemically synthesized by the Hartwell Center for Bionformatics and Biotechnology at SJCRH. ABCC4 peptides (1–4 μM) were mixed with purified GST-ABCC4-C100 (50 nM) (Supplementary Fig. 10 ) before addition of His-S-MPP1 (3.6 nM) and allowed to mix for 2 h at 24 °C. The GST-ABCC4-C100 was immobilized on glutathione beads, and washed 3 times. Protein complexes were eluted from the beads, separated by SDS-PAGE, and immunoblotted with rabbit anti-MPP1.

[5] = test system: murine hematopoietic progenitor cells (HPC)
HEK293 cells = assay: 6MP cytotoxicity / drug resistance in transfected HEK293 cells; type: cell-based, Human; settings: HEK293 co-expressing ABCC4 and MPP1; cell penetrating peptide (20 μM in methods; various amounts), 96 h, in words
Method: HEK293 cells transfected with ABCC4 or ABCC4ΔC in the presence or absence of MPP1, MO7e, and Meg01 cells were treated with 10 concentrations of 6MP, ranging from 1 to 1000 µM, for 96 h. Cell viability analysis was determined using CellTiter Glo (Promega). Where applicable, cell penetrating peptides conjugated to the PDZ-binding motif of ABCC4 (labeled either ABCC4-PDZ or ABCC4ΔC) were added to the cells at 20 μM. Media was changed daily and new ABCC4-PDZ/ABCC4ΔC peptide and 6MP was added. IC50 values were calculated using GraphPad Prism.

MO7e cells [6] = assay: Cytarabine cytotoxicity in MO7e cells; type: cell-based, Human; settings: in words
Method: MO7e cells were seeded at 1500 cells per well of a 96-well plate. Cells were then treated with Cytarabine at increasing concentrations ranging from 0.5 to 500 μM for 4 h in serum-free media. Cells were washed three times with PBS and replaced with fresh complete media for 68 h. Cell viability analysis was determined using CellTiter Glo. Where applicable, cells were treated with 10 nM Antimycin A. IC50 values were calculated using GraphPad Prism.

[7] = molecular target: T2, His-S-MPP1 fusion protein (full-length MPP1) (UniProt Q00013 1-466); assay: fluorescence polarisation; 100 nM FAM-ABCC4 incubated with various concentrations of full-length MPP1; estimated constant; settings: both partners purified
T2 construct: MPP1 (p55), full length, expressed from the pTriX vector; the fragments of the same protein are numbered up to amino acid 466; also called purified MPP1; source: E. coli, purified (nickel column); not shown: His tag, N-terminal, kept
T2 sequence (looked up): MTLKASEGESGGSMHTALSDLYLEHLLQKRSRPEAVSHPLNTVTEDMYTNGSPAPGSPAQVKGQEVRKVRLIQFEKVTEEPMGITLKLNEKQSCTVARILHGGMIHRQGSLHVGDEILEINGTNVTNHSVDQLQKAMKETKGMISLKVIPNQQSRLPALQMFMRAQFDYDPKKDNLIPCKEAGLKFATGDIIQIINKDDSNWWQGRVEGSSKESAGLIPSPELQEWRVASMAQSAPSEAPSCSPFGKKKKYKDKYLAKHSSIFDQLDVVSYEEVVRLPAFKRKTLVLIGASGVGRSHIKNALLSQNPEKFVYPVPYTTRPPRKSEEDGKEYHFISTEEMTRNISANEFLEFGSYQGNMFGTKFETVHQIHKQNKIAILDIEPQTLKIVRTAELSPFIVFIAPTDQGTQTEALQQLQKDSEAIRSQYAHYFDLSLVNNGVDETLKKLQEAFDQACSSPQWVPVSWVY

[8] = molecular target: T2, His-S-MPP1 fusion protein (full-length …); assay: pull-down; competition: TAT-ABCC4 peptides (1–4 μM) mixed with GST-ABCC4-C100 (50 nM) before addition of His-S-MPP1 (3.6 nM), 2 h at 24 °C; GST-ABCC4-C100 immobilized on glutathione beads, washed 3 times; immunoblot with rabbit anti-MPP1; settings: both partners purified
[9] = molecular target: T2, His-S-MPP1 fusion protein (full-length …); assay: FRET or BRET; TR-FRET: various concentrations of B-ABCC4 with 5 nM Tb-anti-His, 50 nM AF488-streptavidin and 5 nM His-S-MPP1 in DPBS, 0.01% BSA, 1 mM DTT, 0.5% DMSO; one site total binding fit; settings: both partners purified
[10] = molecular target: T3, MPP1, endogenous in MO7e cells (human (endogenous in MO7e), UniProt Q00013 1-466); assay: cell-based or functional assay
T3 sequence (looked up): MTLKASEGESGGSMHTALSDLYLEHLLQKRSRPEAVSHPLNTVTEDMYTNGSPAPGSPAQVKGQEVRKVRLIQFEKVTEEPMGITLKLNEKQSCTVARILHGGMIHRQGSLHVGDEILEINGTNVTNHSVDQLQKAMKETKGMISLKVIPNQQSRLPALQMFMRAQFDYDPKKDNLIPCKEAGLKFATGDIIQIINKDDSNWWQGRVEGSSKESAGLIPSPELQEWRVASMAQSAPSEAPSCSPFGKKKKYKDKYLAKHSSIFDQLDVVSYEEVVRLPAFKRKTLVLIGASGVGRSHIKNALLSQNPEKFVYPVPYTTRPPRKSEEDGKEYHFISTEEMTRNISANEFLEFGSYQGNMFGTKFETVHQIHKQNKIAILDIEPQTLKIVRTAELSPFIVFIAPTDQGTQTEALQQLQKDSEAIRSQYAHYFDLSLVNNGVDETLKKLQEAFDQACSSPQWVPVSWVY

SNGQPSTLTIFETAL-OH [ABCC4-PDZ, carboxyl-terminal 15 amino acids of ABCC4 conjugated to the cell penetrating peptide TAT]
effect of peptide on 6MP sensitivity (MO7e cells [1]; cell permeable peptide (10 μM), in words): sensitizes MO7e cells to 6MP | reduction of 6MP IC50 by peptide (MO7e cells [1]; cell permeable peptide (10 μM, Supplementary Fig. 5c)): 2.6 fold | transfected cells exhibiting loss of ABCC4 at the plasma membrane ([2]; cell penetrating peptide (TAT fused; 10 μM in Supplementary Fig. 4), n = 20 fields of view): over 90% | effect on ABCC4 plasma membrane localization ([2]; in words, confocal microscopy): reduced the ABCC4 plasma membrane localization | effect on MPP1-driven methylcellulose replating [3]: suppressed methylcellulose replating | disruption of the MPP1 and ABCC4 protein interaction ([4]; in words, in vitro competition experiment): potently disrupted complex formation | greater affinity of MPP1 for ABCC4 vs. glycophorin c ([4]; suggested by the IC50 of ~300 nM): 15 fold | toxicity to normal hematopoietic progenitors [5]: not toxic to normal | effect of peptide on 6MP IC50 (HEK293 cells): dose-dependently suppressed the IC50 of 6MP with the highest dose almost completely reversing the salutary effect of MPP1 | effect of peptide on cytarabine sensitivity (MO7e cells [6]; MO7e lacking ABCC4): no additional sensitivity to cytarabine | effect of peptide on cytarabine sensitivity (MO7e cells [6]; MO7e, cytarabine 0.5–500 μM 4 h, then 68 h): sensitized to cytarabine cytotoxicity; also recorded: specifically sensitized MO7e cells to cytarabine | effect of co-treatment on IC50 for cytarabine (MO7e cells [6]; peer review file): reduce the IC50 for cytarabine

B1: Fluorescein-conjugated C-terminal peptide of ABCC4 (FAM-TIFETAL-COOH) (peptide)
peptide: {FAM}-TIFETAL-OH
notes: ABCC4, human, C-terminal 7 amino acids with the PDZ motif ETAL; also called FAM-ABCC4; fluorescein-labeled ABCC4-PDZ motif peptide; source: synthetic peptide
Kd [7]: ~600 nM

B2: ABCC4-PDZ peptide (carboxyl-terminal 15 amino acids of ABCC4) conjugated to the cell penetrating peptide TAT (peptide)
peptide: YGRKKRRQRRRSNGQPSTLTIFETAL
notes: cell penetrating HIV-TAT peptide; ABCC4, human, carboxyl-terminal 15 amino acids with the PDZ motif ETAL, free COOH; also called cell penetrating ABCC4-PDZ peptide; source: synthetic peptide
IC50 [8]: ~300 nM

B3: Biotinylated C-terminal ABCC4 peptide (biotin-[residues removed]-COOH) (peptide)
peptide: Biotin-GHTDHMVTNTSNGQPSTLTIFETAL-OH
modifications: not fully specified; printed as biotin-GHTDHMVTNTSNGQPSTLTIFETAL-COOH
notes: ABCC4, human, C-terminal 25 amino acids with the PDZ motif ETAL; Detected through Alexa Fluor 488 streptavidin in the TR-FRET assay; also called B-ABCC4; ABCC4-PDZ peptide; source: synthetic peptide
Kd [9]: ~511 nM

B4: ABCC4, endogenous in MO7e cells (natural protein, human (endogenous in MO7e), UniProt O15439 1-1325, looked up)
chain: MLPVYQEVKPNPLQDANLCSRVFFWWLNPLFKIGHKRRLEEDDMYSVLPEDRSQHLGEELQGFWDKEVLRAENDAQKPSLTRAIIKCYWKSYLVLGIFTLIEESAKVIQPIFLGKIINYFENYDPMDSVALNTAYAYATVLTFCTLILAILHHLYFYHVQCAGMRLRVAMCHMIYRKALRLSNMAMGKTTTGQIVNLLSNDVNKFDQVTVFLHFLWAGPLQAIAVTALLWMEIGISCLAGMAVLIILLPLQSCFGKLFSSLRSKTATFTDARIRTMNEVITGIRIIKMYAWEKSFSNLITNLRKKEISKILRSSCLRGMNLASFFSASKIIVFVTFTTYVLLGSVITASRVFVAVTLYGAVRLTVTLFFPSAIERVSEAIVSIRRIQTFLLLDEISQRNRQLPSDGKKMVHVQDFTAFWDKASETPTLQGLSFTVRPGELLAVVGPVGAGKSSLLSAVLGELAPSHGLVSVHGRIAYVSQQPWVFSGTLRSNILFGKKYEKERYEKVIKACALKKDLQLLEDGDLTVIGDRGTTLSGGQKARVNLARAVYQDADIYLLDDPLSAVDAEVSRHLFELCICQILHEKITILVTHQLQYLKAASQILILKDGKMVQKGTYTEFLKSGIDFGSLLKKDNEESEQPPVPGTPTLRNRTFSESSVWSQQSSRPSLKDGALESQDTENVPVTLSEENRSEGKVGFQAYKNYFRAGAHWIVFIFLILLNTAAQVAYVLQDWWLSYWANKQSMLNVTVNGGGNVTEKLDLNWYLGIYSGLTVATVLFGIARSLLVFYVLVNSSQTLHNKMFESILKAPVLFFDRNPIGRILNRFSKDIGHLDDLLPLTFLDFIQTLLQVVGVVSVAVAVIPWIAIPLVPLGIIFIFLRRYFLETSRDVKRLESTTRSPVFSHLSSSLQGLWTIRAYKAEERCQELFDAHQDLHSEAWFLFLTTSRWFAVRLDAICAMFVIIVAFGSLILAKTLDAGQVGLALSYALTLMGMFQWCVRQSAEVENMMISVERVIEYTDLEKEAPWEYQKRPPPAWPHEGVIIFDNVNFMYSPGGPLVLKHLTALIKSQEKVGIVGRTGAGKSSLISALFRLSEPEGKIWIDKILTTEIGLHDLRKKMSIIPQEPVLFTGTMRKNLDPFNEHTDEELWNALQEVQLKETIEDLPGKMDTELAESGSNFSVGQRQLVCLARAILRKNQILIIDEATANVDPRTDELIQKKIREKFAHCTVLTIAHRLNTIIDSDKIMVLDSGRLKEYDEPYVLLQNKESLFYKMVQQLGKAEAAALTETAKQVYFKRNYPHIGHTDHMVTNTSNGQPSTLTIFETAL
IC50 of 6MP in MO7e cells with the C-terminal ABCC4 peptide [10]: 2.6 fold

— article PMC5691054, “An unexpected protein interaction promotes drug resistance in leukemia” (Nature Communications, 2017)
